Holding throughout (experiment): TR-FRET kinase assay, GFP-ATF2 ([…]-96) phosphorylation
What all share (format): biochemical
A general note: TR-FRET usually uses a lanthanide donor and a delayed reading to cut background.

Experiment [1] concerns the target T1, MAPK14/p38α (Homo sapiens, UniProt Q16539).
Experiment [2] addresses T2, p38β (Homo sapiens, UniProt Q15759).
T2 construct: gene MAPK11

Experiment [3] addresses T3, p38δ (Homo sapiens, UniProt O15264).
T3 construct: gene MAPK13
T3 sequence (O15264 1-365): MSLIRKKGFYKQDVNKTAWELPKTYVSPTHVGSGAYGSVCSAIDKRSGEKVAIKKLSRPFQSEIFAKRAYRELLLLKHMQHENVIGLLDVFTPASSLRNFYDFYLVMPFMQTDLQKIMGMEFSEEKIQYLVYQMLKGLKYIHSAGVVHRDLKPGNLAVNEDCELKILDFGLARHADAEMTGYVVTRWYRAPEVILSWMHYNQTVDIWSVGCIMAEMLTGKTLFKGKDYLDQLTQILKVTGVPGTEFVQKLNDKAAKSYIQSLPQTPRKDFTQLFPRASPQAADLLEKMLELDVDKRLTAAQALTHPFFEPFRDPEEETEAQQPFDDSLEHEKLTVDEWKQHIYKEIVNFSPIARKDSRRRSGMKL

In experiment [4] the target is T4, p38γ (Homo sapiens, UniProt P53778).
T4 construct: gene MAPK12
T4 sequence (P53778 1-367): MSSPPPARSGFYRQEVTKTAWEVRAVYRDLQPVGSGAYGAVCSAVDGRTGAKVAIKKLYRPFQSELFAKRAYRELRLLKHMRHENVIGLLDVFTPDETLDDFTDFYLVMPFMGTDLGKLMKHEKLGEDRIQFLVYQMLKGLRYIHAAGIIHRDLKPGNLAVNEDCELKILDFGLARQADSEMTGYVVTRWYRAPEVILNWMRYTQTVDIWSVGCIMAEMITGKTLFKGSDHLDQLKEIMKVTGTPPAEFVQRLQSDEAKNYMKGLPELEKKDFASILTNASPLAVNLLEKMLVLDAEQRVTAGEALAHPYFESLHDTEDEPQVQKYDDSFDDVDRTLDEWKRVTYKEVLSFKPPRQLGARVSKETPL

Experiment [5] deals with T1, MAPK14/p38α. The note with it: 90 μM ATP, 0.4 μM GFP-ATF2, 10 mM MgCl2, pH 7.5, RT, 15 min preincubation; unreliable (the two tables disagree).

In general, IC50 refers to the point on the concentration scale where inhibition reaches its midpoint.

Like-named read-outs stand apart in the source and are kept apart here.

T1 sequence (Q16539 2-360): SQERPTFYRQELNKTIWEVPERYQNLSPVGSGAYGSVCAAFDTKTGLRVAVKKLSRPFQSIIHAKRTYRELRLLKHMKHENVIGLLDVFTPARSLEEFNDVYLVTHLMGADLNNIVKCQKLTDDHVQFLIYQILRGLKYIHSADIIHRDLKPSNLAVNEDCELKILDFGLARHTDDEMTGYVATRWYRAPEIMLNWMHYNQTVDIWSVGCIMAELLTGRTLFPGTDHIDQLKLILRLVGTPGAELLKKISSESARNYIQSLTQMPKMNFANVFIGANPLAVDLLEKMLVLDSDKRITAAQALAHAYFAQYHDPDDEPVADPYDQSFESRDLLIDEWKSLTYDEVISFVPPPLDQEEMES
T2 sequence (Q15759 whole entry): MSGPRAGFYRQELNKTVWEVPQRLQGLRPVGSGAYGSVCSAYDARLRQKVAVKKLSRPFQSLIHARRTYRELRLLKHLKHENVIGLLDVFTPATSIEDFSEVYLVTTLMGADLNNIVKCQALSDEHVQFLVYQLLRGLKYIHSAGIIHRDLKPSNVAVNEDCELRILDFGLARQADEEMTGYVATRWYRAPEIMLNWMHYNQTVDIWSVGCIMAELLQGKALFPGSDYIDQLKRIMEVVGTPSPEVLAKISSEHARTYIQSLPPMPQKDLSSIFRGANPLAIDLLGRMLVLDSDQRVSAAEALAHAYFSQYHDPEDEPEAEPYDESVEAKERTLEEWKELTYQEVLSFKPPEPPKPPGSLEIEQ

On to `CC(C)(C)c1cc(NC(=O)NCc2ccccc2Oc2ccc3nc(N)sc3c2)n(-c2ccc([N+](=O)[O-])cc2)n1` [8a, 1-(2-((2-Aminobenzo[d]thiazol-6-yl)oxy)benzyl)-3-(3-(tert-butyl)-1-(4-nitrophenyl)-1H-pyrazol-5-yl)urea], for which, in experiment [1], half-maximal inhibition (IC50) required 2.878 ± 0.01 nM. For the molecule `Cc1ccc(-n2nc(C(C)(C)C)cc2NC(=O)NCc2cc(F)ccc2Oc2ccc3nc(N)sc3c2)cc1` [8b, 1-(2-((2-Aminobenzo[d]thiazol-6-yl)oxy)-5-fluorobenzyl)-3-(3-(tert-butyl)-1-(p-tolyl)-1H-pyrazol-5-yl)urea], the half-inhibitory concentration (IC50) in experiment [1] was 1.11 ± 0.2 nM. On to `COC(=O)Nc1nc2ccc(Oc3ccccc3CNC(=O)Nc3cc(C(C)(C)C)nn3-c3ccc([N+](=O)[O-])cc3)cc2s1` [9a, Methyl(6-(2-((3-(3-(tert-butyl)-1-(4-nitrophenyl)-1H-pyrazol-5-yl)ureido)methyl)phenoxy)benzo[d]thiazol-2-yl)carbamate], for which, in experiment [1], the concentration for half-maximal inhibition (IC50) is 1.31 ± 0.09 nM. In experiment [1], `Cc1ccc(-n2nc(C(C)(C)C)cc2NC(=O)NCc2ccccc2Oc2ccc3nc(NC(=O)NC(C)(C)C)sc3c2)cc1` [9b, 1-(3-(Tert-butyl)-1-(p-tolyl)-1H-pyrazol-5-yl)-3-(2-((2-(3-(tert-butyl)ureido)benzo[d]thiazol-6-yl)oxy)benzyl)urea] gave a concentration for half-maximal inhibition (IC50) of 6.16 ± 0.07 nM.

`COC(=O)Nc1nc2ccc(Oc3ccccc3CNC(=O)Nc3cc(C(C)(C)C)nn3-c3ccc(C)cc3)cc2s1` [9c, Methyl(6-(2-((3-(3-(tert-butyl)-1-(p-tolyl)-1H-pyrazol-5-yl)ureido)methyl)phenoxy)benzo[d]thiazol-2-yl)carbamate] yielded an IC50 in experiment [1] of 1.02 ± 0.09 nM. With `CCNC(=O)Nc1nc2ccc(Oc3ccccc3CNC(=O)Nc3cc(C(C)(C)C)nn3-c3ccc(C)cc3)cc2s1` [9d, 1-(3-(Tert-butyl)-1-(p-tolyl)-1H-pyrazol-5-yl)-3-(2-((2-(3-ethylureido)benzo[d]thiazol-6-yl)oxy)benzyl)urea], the half-inhibitory concentration (IC50) in experiment [2] was 17.5 ± 1.25 nM; in experiment [3], 231 ± 7.15 nM; in experiment [4], 191 ± 7.2 nM; in experiment [1], 1.5 ± 0.24 nM.

In the case of `Cc1ccc(-n2nc(C(C)(C)C)cc2NC(=O)NCc2ccccc2Oc2ccc3nc(NC(=O)NCCCl)sc3c2)cc1` [9e, 1-(3-(Tert-butyl)-1-(p-tolyl)-1H-pyrazol-5-yl)-3-(2-((2-(3-(2-chloroethyl)ureido)benzo[d]thiazol-6-yl)oxy)benzyl)urea], in experiment [1] (read-out: p38α IC50 (nM) ^a), the IC50 is 3.29 ± 0.25 nM. Molecule `Cc1ccc(-n2nc(C(C)(C)C)cc2NC(=O)NCc2ccccc2Oc2ccc3nc(NC(=O)NC4CCCCC4)sc3c2)cc1` [9f, 1-(3-(Tert-butyl)-1-(p-tolyl)-1H-pyrazol-5-yl)-3-(2-((2-(3-cyclohexylureido)benzo[d]thiazol-6-yl)oxy)benzyl)urea] came in with an IC50 in experiment [1] of 4.499 ± 0.04 nM.

Consider `CCNC(=O)Nc1nc2ccc(Oc3ccc(F)cc3CNC(=O)Nc3cc(C(C)(C)C)nn3-c3ccc(C)cc3)cc2s1` [9g, 1-(3-(Tert-butyl)-1-(p-tolyl)-1H-pyrazol-5-yl)-3-(2-((2-(3-ethylureido)benzo[d]thiazol-6-yl)oxy)-5-fluorobenzyl)urea], for which the IC50 in experiment [2] is 20.1 ± 1.4 nM; in experiment [3], 948.4 ± 8.35 nM; in experiment [4] it was 424 ± 5.75 nM. The “p38α IC50 (nM) ^a” value in experiment [5] is reported as 0.844 ± 1.04 nM. For `Cc1ccc(-n2nc(C(C)(C)C)cc2NC(=O)NCc2cc(F)ccc2Oc2ccc3nc(NC(=O)NC4CCCCC4)sc3c2)cc1` [9h, 1-(3-(Tert-butyl)-1-(p-tolyl)-1H-pyrazol-5-yl)-3-(2-((2-(3-cyclohexylureido)benzo[d]thiazol-6-yl)oxy)-5-fluorobenzyl)urea], the IC50 in experiment [1] was 12.4 ± 0.18 nM.

`Cc1ccc(-n2nc(C(C)(C)C)cc2NC(=O)NCc2cc(F)ccc2Oc2ccc3nc(NC(=O)NC(C)(C)C)sc3c2)cc1` [9i, 1-(3-(Tert-butyl)-1-(p-tolyl)-1H-pyrazol-5-yl)-3-(2-((2-(3-(tert-butyl)ureido)benzo[d]thiazol-6-yl)oxy)-5-fluorobenzyl)urea] returned a half-inhibitory concentration (IC50) in experiment [1] of 7.54 ± 1.99 nM. In turn, `COC(=O)Nc1nc2ccc(Oc3ccc(F)cc3CNC(=O)Nc3cc(C(C)(C)C)nn3-c3ccc(C)cc3)cc2s1` [9j, Methyl(6-(2-((3-(3-(tert-butyl)-1-(p-tolyl)-1H-pyrazol-5-yl)ureido)methyl)-4-fluorophenoxy)benzo[d]thiazol-2-yl)carbamate] showed an IC50 in experiment [1] of 4.28 ± 1.14 nM.

The values above are taken from article PMC6332430, “Design, Synthesis and Biological Evaluation of Novel Substituted N,N′-Diaryl ureas as Potent p38 Inhibitors” (Molecules, 2015).
